According to patent US12606552B2, “Bifunctional compound, preparation method therefor, and use thereof” (SUZHOU KINTOR PHARMACEUTICALS, INC., priority 2020, dated 2026):

Biological target: T1, AR (Homo sapiens, UniProt P10275, T878A)
T1 sequence (P10275 1-920 T878A): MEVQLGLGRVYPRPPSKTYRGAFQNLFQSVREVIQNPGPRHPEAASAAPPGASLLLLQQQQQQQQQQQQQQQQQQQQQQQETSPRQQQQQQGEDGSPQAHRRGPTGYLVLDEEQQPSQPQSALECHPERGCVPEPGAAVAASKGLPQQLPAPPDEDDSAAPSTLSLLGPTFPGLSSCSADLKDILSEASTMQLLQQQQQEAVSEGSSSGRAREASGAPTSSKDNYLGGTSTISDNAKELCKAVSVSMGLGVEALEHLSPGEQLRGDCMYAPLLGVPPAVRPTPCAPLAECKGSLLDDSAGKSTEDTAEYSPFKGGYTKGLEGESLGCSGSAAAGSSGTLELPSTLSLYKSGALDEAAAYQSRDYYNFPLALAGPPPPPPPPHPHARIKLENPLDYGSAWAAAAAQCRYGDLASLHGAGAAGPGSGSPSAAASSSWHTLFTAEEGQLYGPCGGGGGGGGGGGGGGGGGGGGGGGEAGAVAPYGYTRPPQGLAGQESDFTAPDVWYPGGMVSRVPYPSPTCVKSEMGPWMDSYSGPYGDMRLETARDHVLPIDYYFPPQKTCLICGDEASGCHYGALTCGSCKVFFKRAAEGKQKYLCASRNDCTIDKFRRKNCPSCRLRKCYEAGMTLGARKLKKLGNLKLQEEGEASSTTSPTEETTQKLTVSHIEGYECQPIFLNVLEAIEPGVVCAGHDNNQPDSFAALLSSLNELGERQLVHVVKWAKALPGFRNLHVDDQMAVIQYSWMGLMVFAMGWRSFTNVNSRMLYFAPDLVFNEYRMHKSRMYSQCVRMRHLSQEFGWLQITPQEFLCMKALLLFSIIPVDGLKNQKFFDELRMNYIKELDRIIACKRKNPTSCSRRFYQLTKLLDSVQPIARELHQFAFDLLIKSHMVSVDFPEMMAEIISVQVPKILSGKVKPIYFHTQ
Assay: Effects of compounds on AR expression in LNCaP cells (ELISA, DC50)
Type: cell-based
Parameters: Measurement of the Effects of Drugs on the Expression of AR in Cells by ELISA Method; endogenous in cells; host or cells: LNCaP
Conditions: 24 hours of drug treatment, AR by ELISA
Method in brief: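 LNCaP cells at about 15,000/well were treated for 24 h with compound at 0.0001–2 μmol/L final. AR in cell lysates was measured by ELISA (OD450). Inhibition was relative to DMSO control after blank subtraction, and DC50 was calculated from it.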

Row | SMILES | DC50 [nM]
1 | COc1c(C#N)ccc(N2C(=O)C(C)(C)N(c3cnc(-c4ccc(OC5CCN(C(=O)COc6ccc7c(c6)C(=O)N(C6CCC(=O)NC6=O)C7=O)CC5)cc4F)c(F)c3)C2=S)c1F (centres unmarked) [Compound A194] | 246
2 | Cc1cc(C(C(=O)N2C[C@H](O)C[C@H]2C(=O)N[C@@H](CC(=O)N2CCC(C#Cc3ccc(N4C(=S)N(c5ccc(C#N)c(C(F)(F)F)c5F)C(=O)C4(C)C)cn3)CC2)c2ccc(-c3scnc3C)cc2)C(C)C)on1 (some centres unmarked) [Compound A173] | 78.1
3 | Cc1ncsc1-c1c[nH]c([C@@H]2C[C@@H](O)CN2C(=O)[C@@H](NC(=O)COCCCCOc2ccc(-c3ccc(N4C(=S)N(c5ccc(C#N)c(C(F)(F)F)c5F)C(=O)C4(C)C)cn3)cc2)C(C)(C)C)n1 [Compound A198] | 42.8
4 | COc1c(C#N)ccc(N2C(=O)C(C)(C)N(c3cnc(-c4ccc(OCCCCOCC(=O)N[C@H](C(=O)N5C[C@H](O)C[C@H]5C(=O)NCc5ccc(-c6scnc6C)cc5)C(C)(C)C)c(F)c4)c(F)c3)C2=S)c1F [Compound A215] | 83.1
5 | Cc1ncsc1-c1ccc(CNC(=O)[C@@H]2C[C@@H](O)CN2C(=O)[C@@H](NC(=O)COCCCCN2CCC(c3ccc(N4C(=S)N(c5ccc(C#N)c(C(F)(F)F)c5F)C(=O)C4(C)C)cn3)CC2)C(C)(C)C)cc1 [Compound A141] | > 2000
6 | CC1(C)C(=O)N(c2ccc(C#N)c(C(F)(F)F)c2F)C(=S)N1c1ccc(-c2ccc(OCCNC(=O)COc3cccc4c3C(=O)N(C3CCC(=O)NC3=O)C4=O)cc2)cc1 (centres unmarked) [Compound A22] | 73.7
7 | Cc1ncsc1-c1ccc(CNC(=O)[C@@H]2C[C@@H](O)CN2C(=O)[C@@H](NC(=O)COCCCOCCCCCOc2ccc(N3C(=S)N(c4ccc(C#N)c(C(F)(F)F)c4F)C(=O)C3(C)C)cn2)C(C)(C)C)cc1 [Compound A247] | 75.5
8 | CC(C)(C)[C@H](NC(=O)COCCCCOc1ccc(-c2ncc(N3C(=S)N(c4ccc(C#N)c(C(F)(F)F)c4F)C(=O)C3(C)C)cc2F)c(C(F)(F)F)c1)C(=O)N1C[C@H](O)C[C@H]1c1nc(-c2cccs2)c[nH]1 [Compound A210] | 834
9 | Cc1ncsc1-c1ccc(CNC(=O)[C@@H]2C[C@@H](O)CN2C(=O)[C@@H](NC(=O)CCN2CCC(Oc3ccc(-c4ccc(N5C(=S)N(c6ccc(C#N)c(C(F)(F)F)c6F)C(=O)C5(C)C)cn4)cc3)CC2)C(C)(C)C)cc1 [Compound A65] | 32.4
10 | Cc1ncsc1-c1ccc(CNC(=O)[C@@H]2C[C@@H](O)CN2C(=O)[C@@H](NC(=O)COc2ncc(N3C(=S)N(c4ccc(C#N)c(C(F)(F)F)c4F)C(=O)C3(C)C)cc2F)C(C)(C)C)cc1 [Compound A264] | 870
11 | CC(C)(C)[C@H](NC(=O)COCCCCOc1ccc(-c2ncc(N3C(=S)N(c4ccc(C#N)c(C(F)(F)F)c4F)C(=O)C3(C)C)cc2F)c(C(F)(F)F)c1)C(=O)N1C[C@H](O)C[C@H]1c1nc(-c2ccccc2)c[nH]1 [Compound A202] | 661
12 | Cc1ncsc1-c1ccc(CNC(=O)[C@@H]2C[C@@H](O)CN2C(=O)[C@@H](NC(=O)COCC(F)C(F)COc2ccc(-c3ncc(N4C(=S)N(c5ccc(C#N)c(C(F)(F)F)c5F)C(=O)C4(C)C)cc3F)cc2F)C(C)(C)C)cc1 (some centres unmarked) [Compound A150] | 90.6
13 | Cc1ncsc1-c1ccc(CNC(=O)[C@@H]2C[C@@H](O)CN2C(=O)[C@@H](NC(=O)CCCCCNC(=O)c2ccc(-c3ccc(N4C(=S)N(c5ccc(C#N)c(C(F)(F)F)c5F)C(=O)C4(C)C)cn3)cc2)C(C)(C)C)cc1 [Compound A53] | 149
14 | CC1(C)C(=O)N(c2ccc(C#N)c(C(F)(F)F)c2F)C(=S)N1c1ccc(C2CC2C(=O)NCCNC(=O)COc2cccc3c2C(=O)N(C2CCC(=O)NC2=O)C3=O)nc1 (centres unmarked) [Compound A24] | > 2000
15 | Cc1ncsc1-c1ccc(CNC(=O)[C@@H]2C[C@@H](O)CN2C(=O)[C@@H](NC(=O)COCC(F)CCOc2ccc(-c3ncc(N4C(=S)N(c5ccc(C#N)c(C(F)(F)F)c5F)C(=O)C4(C)C)cc3F)cc2F)C(C)(C)C)cc1 (some centres unmarked) [Compound A159] | 168
16 | CC1(C)C(=O)N(c2ccc(C#N)c(C(F)(F)F)c2F)C(=S)N1c1ccc(C2CC2C(=O)NCCCCNC(=O)COc2cccc3c2C(=O)N(C2CCC(=O)NC2=O)C3=O)nc1 (centres unmarked) [Compound A26] | > 2000

Row | SMILES | DC50 [nM]
17 | Cc1ncsc1-c1ccc(CNC(=O)[C@@H]2C[C@@H](O)CN2C(=O)[C@@H](NC(=O)COCCOc2c(F)cc(-c3ncc(N4C(=S)N(c5ccc(C#N)c(C(F)(F)F)c5F)C(=O)C4(C)C)cc3F)cc2F)C(C)(C)C)cc1 [Compound A87] | 54.6
18 | Cc1ncsc1-c1ccc(CNC(=O)[C@@H]2C[C@@H](O)CN2C(=O)[C@@H](NC(=O)COCCCC(=O)N(Cc2ccccc2)c2ccc(-c3ccc(N4C(=S)N(c5ccc(C#N)c(C(F)(F)F)c5F)C(=O)C4(C)C)cn3)cc2)C(C)(C)C)cc1 [Compound A67] | 248
19 | CC(C)(C)[C@H](NC(=O)COCCCCOc1ccc(-c2ncc(N3C(=S)N(c4ccc(C#N)c(C(F)(F)F)c4F)C(=O)C3(C)C)cc2F)cc1F)C(=O)N1C[C@H](O)C[C@H]1C(=O)NCc1ccccc1 [Compound A120] | 216
20 | CC1(C)C(=O)N(c2ccc(C#N)c(C(F)(F)F)c2F)C(=S)N1c1cnc(-c2ccc(OC3CCN(C(=O)COc4ccc5c(c4)C(=O)N(C4CCC(=O)NC4=O)C5=O)CC3)c(F)c2)c(F)c1 (centres unmarked) [Compound A42] | 122
21 | CC(C)(C)[C@H](NC(=O)COCCOc1ccc(-c2ncc(N3C(=S)N(c4ccc(C#N)c(C(F)(F)F)c4F)C(=O)C3(C)C)cc2F)cc1F)C(=O)N1C[C@H](O)C[C@H]1C(=O)NCc1ccc(C(N)=O)cc1 [Compound A129] | 67.9
22 | Cc1cc(C(C(=O)N2C[C@H](O)C[C@H]2C(=O)N[C@@H](CC(=O)NCCN2CCC(Oc3ccc(-c4ncc(N5C(=S)N(c6ccc(C#N)c(C(F)(F)F)c6F)C(=O)C5(C)C)cc4F)cc3F)CC2)c2ccc(-c3scnc3C)cc2)C(C)C)on1 (some centres unmarked) [Compound A186] | 87
23 | COc1c(C#N)ccc(N2C(=O)C(C)(C)N(c3cnc(-c4ccc(OCCNC(=O)COc5ccc6c(c5)C(=O)N(C5CCC(=O)NC5=O)C6=O)c(F)c4)c(F)c3)C2=S)c1F (centres unmarked) [Compound A197] | 435
24 | Cc1ncsc1-c1ccc(CNC(=O)[C@@H]2C[C@@H](O)CN2C(=O)[C@@H](NC(=O)COCCCCOc2ccc(-c3ncc(N4C(=S)N(c5ccc(C#N)c(C(F)(F)F)c5F)C(=O)C4(C)C)cc3C(F)(F)F)cc2C#N)C(C)(C)C)cc1 [Compound A75] | 89.4
25 | CC1(C)C(=O)N(c2ccc(C#N)c(C(F)(F)F)c2F)C(=S)N1c1ccc(-c2ccc(OC3CCN(C(=O)COc4cccc5c4C(=O)N(C4CCC(=O)NC4=O)C5=O)C3)cc2)nc1 (centres unmarked) [Compound A44] | > 2000
26 | Cc1ncsc1-c1ccc(CNC(=O)[C@@H]2C[C@@H](O)CN2C(=O)[C@@H](NC(=O)COCCCCNC(=O)/C=C/c2ccc(N3C(=S)N(c4ccc(C#N)c(C(F)(F)F)c4F)C(=O)C3(C)C)cn2)C(C)(C)C)cc1 [Compound A170] | 946
27 | Cc1ncsc1-c1c[nH]c([C@@H]2C[C@@H](O)CN2C(=O)[C@@H](NC(=O)COCCCCOc2ccc(-c3ncc(N4C(=S)N(c5ccc(C#N)c(C(F)(F)F)c5F)C(=O)C4(C)C)cc3F)c(C(F)(F)F)c2)C(C)(C)C)n1 [Compound A165] | 43.8
28 | Cc1ncsc1-c1ccc(CNC(=O)[C@@H]2C[C@@H](O)CN2C(=O)[C@@H](NC(=O)COCCOCCCOc2ncc(N3C(=S)N(c4ccc(C#N)c(C(F)(F)F)c4F)C(=O)C3(C)C)cc2F)C(C)(C)C)cc1 [Compound A267] | 119
29 | CC1(C)C(=O)N(c2ccc(C#N)c(C(F)(F)F)c2F)C(=S)N1c1cnc(-c2ccc(OC3CCN(C(=O)COc4cccc5c4C(=O)N(C4CCC(=O)NC4=O)C5=O)CC3)c(F)c2)c(F)c1 (centres unmarked) [Compound A43] | 88.3
30 | Cc1ncsc1-c1ccc(CNC(=O)[C@@H]2C[C@@H](O)CN2C(=O)[C@@H](NC(=O)COCCCCn2cc(-c3ccc(N4C(=S)N(c5ccc(C#N)c(C(F)(F)F)c5F)C(=O)C4(C)C)cn3)ccc2=O)C(C)(C)C)cc1 [Compound A98] | 281
31 | Cc1ncsc1-c1ccc(CNC(=O)[C@@H]2C[C@@H](O)CN2C(=O)[C@@H](NC(=O)COCC(F)CCOc2ccc(-c3ccc(N4C(=S)N(c5ccc(C#N)c(C(F)(F)F)c5F)C(=O)C4(C)C)cn3)cc2)C(C)(C)C)cc1 (some centres unmarked) [Compound A171] | 80.2
32 | Cc1ncsc1-c1ccc([C@H](C)NC(=O)[C@@H]2C[C@@H](O)CN2C(=O)[C@@H](NC(=O)COCCCCOc2ccc(-c3ccc(N4C(=S)N(c5ccc(C#N)c(C(F)(F)F)c5F)C(=O)C4(C)C)cn3)cc2C(F)(F)F)C(C)(C)C)cc1 [Compound A113] | 193
